Laboratory results taken from US20140378395A1, “Peptides for the Treatment of Hearing” (13Therapeutics, Inc., priority 2011, published 2014).

Experiments:
[1] = system: TNF-α secretion from RAW264.7 cells; test: Inhibition of CpG-ODN-induced TNF-α secretion from RAW264.7 cells (ELISA); assay type: cell-based, murine; details: for Inhibition of TNF-α secretion (percent inhibition) / Percent Inhibition of TNF-α secretion / Percent Inhibition of TNF-α secretion, CpG Stimulation: RAW264.7, 4 hours; for Inhibition of TNF-α secretion (percent inhibition) / Percent Inhibition of TNF-α secretion: 1 μg/ml CpG-ODN; for activity compared with P13 (inhibition of TNF-α after stimulation of RAW264.7 cells with CpG): SAR, versus P13; for Percent Inhibition of TNF-α secretion, CpG Stimulation: 1.25 ug/ml CpG-ODN
Procedure: RAW264.7 cells were plated at 1.5×10^5 cells/well-3×10^5 cells/well in 48-well plates. After 24 hours, the cells were incubated with peptides at various concentrations at room temperature in triplicate either before, simultaneous with, or after activation with various PAMPs for 18 hours. Cell-free supernatants were analyzed for cytokines by ELISA, in quadruplicate. RAW264.7 cells were stimulated with either CpG-ODN (1 μg/ml or 1.25 μg/ml), LPS (about 1 ng/ml), Poly (I:C) (about 10 μg/ml), flagellin (about 5 ng/ml), or zymosan (about 10 μg/ml). Dose response curves were done with each PAMP to determine optimal stimulation concentration. For CpG-ODN stimulation, cells were incubated for 4 hours at 37° C., supernatants collected, and TNF-α measured by ELISA. Any cytokine involved in inflammatory disease mediated toll receptor signaling can be measured using similar assays.
The effect of several peptides on TNF-α secretion from RAW264.7 cells in response to stimulation by CpG-ODN was studied. Each peptide was initially tested at 3 concentrations, 37 μM, 22.2 μM, and 11.1 μM. […] The peptides were then tested at 11.1 μM, 7.4 μM, and 3.7 μM (Table 3). […] Cell viability was examined for each peptide at the concentrations tested for TNF-α inhibition.
Inhibition of TNF-α secretion by various T-peptides was examined. RAW264.7 cells were plated at 3×10^5 cells/well in 48-well plates. After 24 h the cells were incubated with peptide at various concentrations at room temperature in triplicate for 15 minutes and then stimulated with 1.25 ug/ml CpG-ODN or 1 ng/ml LPS. Cells were then incubated for 4 hours at 37° C., supernatants collected, and TNF-α measured by ELISA. Percent inhibition was calculated by comparing TNF-α secretion from cells incubated with peptide to control cells with no peptide treatment. The inhibitive effects of peptides T3 (SEQ ID NO: 319), T11 (SEQ ID NO: 327), T21 (SEQ ID NO: 337), T36 (SEQ ID NO: 352), T37 (SEQ ID NO: 353), T51 (SEQ ID NO: 367), and T52 (SEQ ID NO: 368) were compared to inhibition by an analogue of P13 (SEQ ID NO: 369) having a sequence of nine arginine residues at the C-terminus (P13-R^9 (SEQ ID NO: 378)). (Table 4).

[2] = system: TNF-α secretion from RAW264.7 cells; test: as above; assay type: cell-based, murine; details: peptide 3.1 μM (Table 3), 1 μg/ml CpG-ODN, 4 hours

| Sequence | Inhibition of TNF-α secretion (percent inhibition) ([1]; peptide 7 μM (Table 3)) [%] | Inhibition of TNF-α secretion (percent inhibition) ([1]; peptide 11 μM (Table 3)) [%] | Percent Inhibition of TNF-α secretion ([1]; peptide 11.1 μM) [%] | Percent Inhibition of TNF-α secretion ([1]; peptide 22.2 μM) [%] | Percent Inhibition of TNF-α secretion ([1]; peptide 37 μM) [%] | Inhibition of TNF-α secretion (percent inhibition) [2] [%] | activity compared with P13 (inhibition of TNF-α after stimulation of RAW264.7 cells with CpG) [1] | Percent Inhibition of TNF-α secretion, CpG Stimulation ([1]; peptide 7.1 μM) [%] | Percent Inhibition of TNF-α secretion, CpG Stimulation ([1]; peptide 11.1 μM) [%] | Percent Inhibition of TNF-α secretion, CpG Stimulation ([1]; peptide 22 μM) [%] |
| --- | --- | --- | --- | --- | --- | --- | --- | --- | --- | --- |
| EMFTILEEYFMYRGRRRRRRRRR (C-terminal nona-arginine (R9)) [81(S16)-R^9] | 53 | 70 | 84 | 86 | 90 | 26 | – | – | – | – |
| EMFTILEEYFMYRGLLGLRRRRRRRRR (C-terminal nona-arginine (R9)) [77(S13)-R^9] | 77 | 81 | 84 | 89 | 93 | 18 | – | – | – | – |
| EMFTILEEYFMYRRRRRRRRR (C-terminal nona-arginine (R9)) [83(S17)-R^9] | 44 | 57 | 72 | 82 | 89 | 0 | – | – | – | – |
| EMFTILEEYFMYRGLLGLRIKYGRLFNEIRRRRRRRRR (C-terminal nona-arginine (R9)) [42(S1)-R^9] | 67 | 83 | 85 | 96 | 97 | 37 | – | – | – | – |
| FTILEEYFMYRGLLGLRIKYGRLFNEIRRRRRRRRR (C-terminal nona-arginine (R9)) [44(S3)-R^9] | 24 | 78 | 91 | 96 | 95 | 0 | – | – | – | – |
| EMFTILEEYFMYRGLLGLRRRRRRRRRR (C-terminal nona-arginine (R9)) [76(S12)-R^9] | 67 | 84 | 82 | 84 | 87 | 44 | – | – | – | – |
| EMFTILEEYFMYRGLLGLRIKYGRLRRRRRRRRR (C-terminal nona-arginine (R9)) [70(S6)-R^9] | 87 | 94 | 93 | 100 | 100 | 63 | – | – | – | – |
| EMFTILEEYFMYRGLLGLRIRRRRRRRRR (C-terminal nona-arginine (R9)) [75(S11)-R^9] | 84 | 93 | 92 | 97 | 98 | 31 | – | – | – | – |
| AIVKLTVYACIRRRRRRRRR [T51-R^9] | – | – | – | – | – | – | superior activity | 94 | 98 | 99.7 |
| DIVKVTVYDCIRRRRRRRRR [T37-R^9] | – | – | – | – | – | – | superior activity | 46 | 87 | 93 |
| ILEEYFMYRGLLGLRIRRRRRRRRR (C-terminal nona-arginine (R9)) [105(S21)-R^9] | 52 | 62 | 62 | 91 | – | – | – | – | – | – |
| MFTILEEYFMYRGLLGLRIRRRRRRRRR (C-terminal nona-arginine (R9)) [102(S18)-R^9] | 48 | 72 | 72 | 91 | – | – | – | – | – | – |
| EMFTILEEYFMYRGLLGLRIKYGRLFNRRRRRRRRR (C-terminal nona-arginine (R9)) [68(S4)-R^9] | 83 | 95 | 95 | 100 | 100 | 69 | – | – | – | – |
| AIIKVYVYACIRRRRRRRRR [T52-R^9] | – | – | – | – | – | – | superior activity | 97.8 | 99.2 | 100 |
| TILEEYFMYRGLLGLRIRRRRRRRRR (C-terminal nona-arginine (R9)) [104(S20)-R^9] | 60 | 74 | 74 | 93 | – | – | – | – | – | – |
| EMFTILEEYFMYRGLLGLRIKYGRRRRRRRRRR (C-terminal nona-arginine (R9)) [71(S7)-R^9] | 29 | 38 | 56 | 82 | 91 | 21 | – | – | – | – |
| MFTILEEYFMYRGLLGLRIKYGRLFNEIRRRRRRRRR (C-terminal nona-arginine (R9)) [43(S2)-R^9] | 51 | 70 | 91 | 94 | 100 | 0 | – | – | – | – |
| EMFTILEEYFMYRGLLGLRIKRRRRRRRRR (C-terminal nona-arginine (R9)) [74(S10)-R^9] | 80 | 92 | 91 | 100 | 100 | 35 | – | – | – | – |
| DIIKLTVYDCIRRRRRRRRR [T36-R^9] | – | – | – | – | – | – | superior activity | 50 | 70 | 82 |
| EMFTILEEYFMYRGLLGLRIKYRRRRRRRRR (C-terminal nona-arginine (R9)) [73(S9)-R^9] | 76 | 85 | 84 | 100 | 100 | 3 | – | – | – | – |
| DIVKLYVYDCIRRRRRRRRR [T21-R^9] | – | – | – | – | – | – | superior activity | 69 | 90 | 98 |
| LEEYFMYGLLGLRIRRRRRRRRR (C-terminal nona-arginine (R9)) [106(S22)-R^9] | 53 | 70 | 70 | 92 | – | – | – | – | – | – |
| FTILEEYFMYRGLLGLRIRRRRRRRRR (C-terminal nona-arginine (R9)) [103(S19)-R^9] | 87 | 93 | 93 | 99 | – | – | – | – | – | – |
